Target: T1, human IL-17AA (Homo sapiens, UniProt Q16552)
T1 construct: host or cells: HEK (human embryonic kidney) cells
T1 sequence (Q16552 24-155): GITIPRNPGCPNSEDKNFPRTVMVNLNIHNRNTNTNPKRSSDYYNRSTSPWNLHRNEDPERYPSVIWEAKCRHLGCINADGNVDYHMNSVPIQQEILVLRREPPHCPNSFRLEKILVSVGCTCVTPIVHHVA
Assay: IL-8 release assay in human epithelial keratinocytes adult (HEKa)
Assay type: cell-based
Details: HEKa cells, 3 ng/mL HEK-human IL-17AA + 10 ng/mL human TNFalpha; read-out: Rel EC50 IL-8 release assay
Method: Example 138: IL-8 Release Assay in Human Epithelial Keratinocytes Adult (HEKa)
Keratinocytes were seeded at 3500 cells/well in 384-well ViewPlates (Perkin Elmer) in Epilife medium (Thermo Fisher) containing human keratinocyte growth supplement (HKGS) without hydrocortisone and incubated in a humid incubator at 37° C. 5% CO2, overnight. The following day growth medium was removed and 25 μl fresh Epilife medium added. 75 nL test compound in 100% DMSO was added into each well reserved for test compounds, by the use of acoustic pipetting. The remaining wells received an equal volume of DMSO only, as vehicle control, or terfenadine in DMSO, as a positive control for any cytotoxic compounds. Subsequently, another 25 μL Epilife medium was added to each well. Finally, wells containing test compounds and wells prepared to yield maximum stimulation received […] of 9 ng/mL recombinant, human embryonic kidney cell (HEK)-derived human IL-17AA+30 ng/mL human TNF-alpha, in Epilife medium. Wells prepared to define 100% inhibition of IL-17 effects received 25 μL of 30 ng/mL human TNF-alpha alone, in Epilife medium. Final concentrations were 3 ng/mL HEK-human IL-17AA+10 ng/mL human TNFalpha (maximum stimulation) and 10 ng/mL human TNFalpha alone (100% inhibition, Emax), respectively. Cells were incubated for 68-72 hours in the incubator. IL-8 released from the cells was measured by the use of a commercial homogenous time-resolved fluorescence (HTRF) assay (CisBio). 2 μL cell culture supernatant was transferred to a 384-well Proxiplate. 5 μL HTRF reagent was added and the plates incubated sealed in the dark for 3-22 hours at room temperature. Time-resolved fluorescence was read at 665 vs 620 nm, with excitation at 320 nm, and IL-8 levels calculated as percent of controls. Reduction of the amount of secreted IL-8 indicates decreased IL-17 signaling. Concentration response curves were fitted by the use of a four-parameter logistic equation. Relative IC50 and Emax were reported from curves showing acceptable fit (r^2>0.9). Cytotoxicity was measured in the cell-containing Viewplates following addition of 7 μL PrestoBlue (Thermo Fisher) and incubation for 2.5-3 hours at room temperature, by measuring fluorescence at 615 nm (excitation at 535 nm). Fluorescence was directly proportional to the amount of metabolic activity. Reduction of fluorescence signal indicated cytotoxicity.
Compounds of the present invention were tested in the IL-8 release assay in human epithelial keratinocytes.
Compounds having a Relative EC50 of X; wherein X<100 nM; are indicated with *
Compounds having a Relative EC50 of X; wherein 100 nM<X<1000 nM; are indicated with **
Compounds having a Relative EC50 of X; wherein 1000 nM<X; are indicated with ***

EC50, 100 to 1000 nM:
Cc1n[nH]c(C)c1-c1ccc(NC(=O)[C@@H](NC(=O)c2ccnn2C(C)CO)C(C)C(C)(C)C)cc1 (single isomer, unassigned) [Example 177]
Cc1n[nH]c(C)c1-c1ccc(NC(=O)[C@@H](NC(=O)c2ccnn2C(C)C)C(C)C2CCC2)cc1 (single isomer, unassigned) [Example 191]
CCn1nccc1C(=O)N[C@H](C(=O)Nc1ccc(-c2c(C)n[nH]c2C)cc1)C(C)C1CCC1 (single isomer, unassigned) [Example 193]
Cc1n[nH]c(C)c1-c1ccc(NC(=O)[C@@H](NC(=O)c2ccnn2C)C(C)C2CCC2)cc1 (single isomer, unassigned) [Example 195]
CCC(c1ccccc1)C(NC(=O)c1ccnn1C)C(=O)Nc1ccc(-c2c(C)n[nH]c2C)cc1 (single isomer, unassigned) [Example 228]
Cc1n[nH]c(C)c1-c1ccc(NC(=O)[C@@H](NC(=O)c2ccnn2C)C2CCC2(C)C)cc1 (single isomer, unassigned) [Example 232]
Cc1n[nH]c(C)c1-c1ccc(NC(=O)C(NC(=O)c2ccnn2C)[C@@H](C)c2ccccc2)cc1 (single isomer, unassigned) [Example 234]
Cc1n[nH]c(C)c1-c1ccc(NC(=O)[C@@H](NC(=O)c2ccnn2C)C2CC3CCC2CC3)cc1 (single isomer, unassigned) [Example 254]
Cc1n[nH]c(C)c1-c1ccc(NC(=O)[C@@H](NC(=O)c2ccnn2C)C2CCC(C(F)(F)F)CC2)cc1 (single isomer, unassigned) [Example 269]
Cc1n[nH]c(C)c1-c1ccc(NC(=O)C(NC(=O)c2ccnn2C)C(c2ccccc2)C2CC2)cc1 (single isomer, unassigned) [Example 301, N-[1-[cyclopropyl(phenyl)methyl]-2-[4-(3,5-dimethyl-1H-pyrazol-4-yl)anilino]-2-oxo-ethyl]-2-methyl-pyrazole-3-carboxamide]

EC50, < 100 nM:
Cc1n[nH]c(C)c1-c1ccc(NC(=O)[C@@H](NC(=O)c2ccnn2C(C)CO)C(C)C(C)(C)C)cc1 (single isomer, unassigned) [Example 178]
Cc1n[nH]c(C)c1-c1ccc(NC(=O)[C@@H](NC(=O)c2ccnn2C(C)CO)C2C3CC4CC(C3)CC2C4)cc1 (single isomer, unassigned) [Example 187]
Cc1n[nH]c(C)c1-c1ccc(NC(=O)[C@@H](NC(=O)c2ccnn2C(C)CO)C2C3CC4CC(C3)CC2C4)cc1 (single isomer, unassigned) [Example 188]
Cc1n[nH]c(C)c1-c1ccc(NC(=O)[C@@H](NC(=O)c2ccnn2C(C)C)C(C)C2CCC2)cc1 (single isomer, unassigned) [Example 190]
CCn1nccc1C(=O)N[C@H](C(=O)Nc1ccc(-c2c(C)n[nH]c2C)cc1)C(C)C1CCC1 (single isomer, unassigned) [Example 192]
Cc1n[nH]c(C)c1-c1ccc(NC(=O)[C@@H](NC(=O)c2ccnn2C)C(C)C2CCC2)cc1 (single isomer, unassigned) [Example 194]
Cc1n[nH]c(C)c1-c1ccc(NC(=O)[C@@H](NC(=O)c2ccnn2C(C)CO)[C@H]2CC[C@H](C)CC2)cc1 (single isomer, unassigned) [Example 204]
Cc1n[nH]c(C)c1-c1ccc(NC(=O)[C@@H](NC(=O)c2ccnn2C(C)CO)[C@H]2CC[C@H](C)CC2)cc1 (single isomer, unassigned) [Example 205]
Cc1n[nH]c(C)c1-c1ccc(NC(=O)[C@@H](NC(=O)c2ccnn2C(C)CO)[C@@H]2CC(C)(C)CCC2(F)F)cc1 (single isomer, unassigned) [Example 210]
Cc1n[nH]c(C)c1-c1ccc(NC(=O)[C@@H](NC(=O)c2ccnn2C(C)CO)[C@@H]2CC(C)(C)CCC2(F)F)cc1 (single isomer, unassigned) [Example 211]
Cc1n[nH]c(C)c1-c1ccc(NC(=O)[C@@H](NC(=O)c2ccnn2C(C)CCO)C(C2CC2)C2CC2)cc1 (single isomer, unassigned) [Example 225]
Cc1n[nH]c(C)c1-c1ccc(NC(=O)[C@@H](NC(=O)c2ccnn2C(C)CCO)C(C2CC2)C2CC2)cc1 (single isomer, unassigned) [Example 226]
Cc1n[nH]c(C)c1-c1ccc(NC(=O)[C@@H](NC(=O)c2ccnn2C)C2CCCC(C)(C)C2)cc1 (single isomer, unassigned) [Example 239]
Cc1n[nH]c(C)c1-c1ccc(NC(=O)C(NC(=O)c2ccnn2C)C2CCc3c(F)cccc32)cc1 (single isomer, unassigned) [Example 247]
Cc1n[nH]c(C)c1-c1ccc(NC(=O)C(NC(=O)c2ccnn2C)[C@H]2CCCc3c(F)cc(F)cc32)cc1 (single isomer, unassigned) [Example 255]
Cc1n[nH]c(C)c1-c1ccc(NC(=O)C(NC(=O)c2ccnn2C)[C@H]2CCCc3c(F)cccc32)cc1 (single isomer, unassigned) [Example 256]
CCC(C1CCCCC1)C(NC(=O)c1ccnn1C)C(=O)Nc1ccc(-c2c(C)n[nH]c2C)cc1 (single isomer, unassigned) [Example 257]
CCC(C1CCCCC1)C(NC(=O)c1ccnn1C)C(=O)Nc1ccc(-c2c(C)n[nH]c2C)cc1 (single isomer, unassigned) [Example 258]
Cc1n[nH]c(C)c1-c1ccc(NC(=O)C(NC(=O)c2ccnn2C)C2CCCc3cc(F)ccc32)cc1 (single isomer, unassigned) [Example 260]
Cc1n[nH]c(C)c1-c1ccc(NC(=O)[C@@H](NC(=O)c2ccnn2C)C2C[C@@H](C)C[C@@H](C)C2)cc1 (single isomer, unassigned) [Example 268]
Cc1n[nH]c(C)c1-c1ccc(NC(=O)C(NC(=O)c2ccnn2C)C(c2ccccc2)C2CCC2)cc1 (single isomer, unassigned) [Example 299, N-[1-[cyclobutyl(phenyl)methyl]-2-[4-(3,5-dimethyl-1H-pyrazol-4-yl)anilino]-2-oxo-ethyl]-2-methyl-pyrazole-3-carboxamide]

EC50, > 1000 nM:
Cc1n[nH]c(C)c1-c1ccc(NC(=O)[C@@H](NC(=O)c2ccnn2C)C2CC23CCC3)cc1 (single isomer, unassigned) [Example 223]
Cc1n[nH]c(C)c1-c1ccc(NC(=O)[C@@H](NC(=O)c2ccnn2C)C2CC2(C)C)cc1 (single isomer, unassigned) [Example 224]
CCC(c1ccccc1)C(NC(=O)c1ccnn1C)C(=O)Nc1ccc(-c2c(C)n[nH]c2C)cc1 (single isomer, unassigned) [Example 227]
Cc1n[nH]c(C)c1-c1ccc(NC(=O)C(NC(=O)c2ccnn2C)C(C)c2ccccc2)cc1 (single isomer, unassigned) [Example 235]
Cc1n[nH]c(C)c1-c1ccc(NC(=O)C(NC(=O)c2ccnn2C)C(C)c2ccccc2)cc1 (single isomer, unassigned) [Example 236]
Cc1n[nH]c(C)c1-c1ccc(NC(=O)C(NC(=O)c2ccnn2C)C(C)c2ccccc2)cc1 (single isomer, unassigned) [Example 237]
Cc1n[nH]c(C)c1-c1ccc(NC(=O)C(NC(=O)c2ccnn2C)C2CCc3c(F)cccc32)cc1 (single isomer, unassigned) [Example 248]
Cc1n[nH]c(C)c1-c1ccc(NC(=O)C(NC(=O)c2ccnn2C)C2CCCc3cc(F)ccc32)cc1 (single isomer, unassigned) [Example 259]
Cc1n[nH]c(C)c1-c1ccc(NC(=O)C(NC(=O)c2ccnn2C)C(c2ccccc2)C2CCC2)cc1 (single isomer, unassigned) [Example 300, N-[1-[cyclobutyl(phenyl)methyl]-2-[4-(3,5-dimethyl-1H-pyrazol-4-yl)anilino]-2-oxo-ethyl]-2-methyl-pyrazole-3-carboxamide]

Reference: US11377425B1, “Small molecule modulators of IL-17” (LEO Pharma A/S, priority 2018, dated 2022)
